Measurements as given in patent US20110142837A1, “Method Of Treating Acute Respiratory Distress Syndrome” (TRUSTEES OF THE UNIVERSITY OF PENNSYLVANIA, priority 2007, published 2011).

Assays:
[1] = tested on: neutrophils from healthy individuals incubated with BAL fluid from ARDS patients; assay: mPT of supernatants from healthy neutrophils stimulated with ARDS BAL fluid, inhibition studies; assay type: cell-based, human
Method: Isolation of peripheral blood neutrophils: Circulating leukocytes from all ARDS patients and from 4 healthy donors were immediately isolated from EDTA-treated peripheral blood. Peripheral blood neutrophils were separated by Histopaque-double gradient density centrifugation. The absolute number of neutrophils was adjusted to 2-3×10^6 cells/ml in PBS. Approximately one-quarter (˜6-8×10^5 cells in 250 μl PBS) was used for each stimulation or inhibition reaction. Cell purity (>98%), viability by trypan blue exclusion (>97%), and platelet contamination (<2 platelets/100 neutrophils) were assessed in all experiments.
Modified prothrombin time (mPT) assay: The supernatants from neutrophils that had been incubated with BALF supernatants or/and various agents were isolated by centrifugation at 1000×g for 10 minutes; the supernatants from these neutrophil preparations were checked a second time to confirm the absence of contaminating cells or platelets. The coagulation activities (TF/FVIIa binding activity) of the cell supernatants were determined using a modified prothrombin time (mPT) assay as previously described (18). After performing the “classic” prothrombin time (PT) test (100 microliter (μl) platelet poor plasma (PPP) plus 200 μl thromboplastin ISI 1.9 (Instrumentation Laboratory, Milan, Italy), the modified PT analysis was carried out. Namely, 120 μl of cell or BALF supernatant and 80 μl thromboplastin were added to 100 μl of PPP to measure the changes in PT. As a control for modified PT assays, 120 μl of PBS was used instead of cell supernatant, and the in vitro clotting time usually ranged from 31 seconds to 34 seconds.
(§1) Stimulation and inhibition studies: Neutrophils from healthy individuals were incubated for 120 minutes at 37° C. in PBS containing various stimulatory or inhibitory substances, in a total volume of 250 μl. Neutrophils were incubated with: 1) serum (50 μl) from healthy individuals; 2) serum (50 μl) from patients suffering from ARDS; 3) BAL fluid (40 μl) from ARDS patients; 4) BAL fluid from ARDS patients, together with normal neutrophils that had been pretreated for 30 minutes with the C5aR antagonist AcF-[OpdChaWR] (5 μM final concentration); 5) BAL fluid from patients with ARDS, together with normal neutrophils that had been preincubated for 30 minutes with the C3aR antagonist […], 10 μM final concentration); 6) BAL fluid from ARDS patients pretreated for 30 minutes with Humira® (Abbot Laboratories, Abbott Park, Ill.; anti-TNF monoclonal antibody, 0.4 μg/μl final concentration), together with normal neutrophils; or 7) BAL fluid from ARDS patients, together with normal neutrophils pretreated for 30 minutes with anti-IL-6 Mab (10 μg/ml final concentration).
In the complement cascade, cleavage of C3 produces C3a and C3b. C3b contributes to the formation of enzymatic assemblies that in turn catalyze the formation of C5a from C5. The following experiment was designed to test whether inhibition of C3 cleavage, which reduces the amount of C5a formed, is effective in reducing TF expression. Modified PT assays were carried out essentially as described above using neutrophils obtained from healthy individuals and incubating them with BAL fluid from patients with ARDS. The BAL fluid from the seven patients was tested individually.

[2] = target: C5a receptor (C5aR) on neutrophils from healthy individuals (human) (UniProt P21730); assay: cell-based or functional assay
Sequence of UniProt P21730 (P21730 whole entry): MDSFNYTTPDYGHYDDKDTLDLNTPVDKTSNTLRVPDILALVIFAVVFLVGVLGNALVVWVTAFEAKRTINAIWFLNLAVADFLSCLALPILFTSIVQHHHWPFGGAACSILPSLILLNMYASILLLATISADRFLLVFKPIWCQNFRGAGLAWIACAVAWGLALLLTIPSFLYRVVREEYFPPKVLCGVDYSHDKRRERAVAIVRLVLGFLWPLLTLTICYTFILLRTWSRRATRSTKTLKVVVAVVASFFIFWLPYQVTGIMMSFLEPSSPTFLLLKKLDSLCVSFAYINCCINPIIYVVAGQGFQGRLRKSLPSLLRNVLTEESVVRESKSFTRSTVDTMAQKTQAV

[3] = tested on: TF expression in neutrophils; assay: TF expression in BALF-stimulated healthy neutrophils (APAAP immunostaining, FACS, western blot); assay type: cell-based, human; conditions: FIGS. 4B, C and D; healthy neutrophils + 40 μl ARDS BALF
Method: as §1
Alkaline-Phosphatase anti-Alkaline-Phosphatase (APAAP) Immunostaining: Smears of cells (BALF pellet and peripheral blood-isolated neutrophils, before and after stimulation and/or inhibition studies) were stored at −20° C. prior to use. […]

[4] = target: TNF-alpha in BALF from ARDS patients (human) (UniProt P01375); assay: cell-based or functional assay
Sequence of UniProt P01375 (P01375 77-233 limits assumed): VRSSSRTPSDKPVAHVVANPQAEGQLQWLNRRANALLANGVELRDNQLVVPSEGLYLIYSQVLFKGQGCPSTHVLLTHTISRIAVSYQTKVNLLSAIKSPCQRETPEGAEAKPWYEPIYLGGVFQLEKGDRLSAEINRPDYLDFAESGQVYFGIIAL

Molecule: NC(N)=NCCC[C@H](NC(=O)COCC(c1ccccc1)c1ccccc1)C(=O)O [SB-290152]
- influence on mPT values of supernatants from BALF-stimulated neutrophils ([1]; SB-290152 10 μM, anti-IL-6 Mab 10 μg/ml, 30 minutes pretreatment): did not influence the mPT values

Molecule: CC[C@H](C)[C@H](N)C(=O)N[C@H]1CSSC[C@@H](C(=O)N[C@H](C(N)=O)[C@@H](C)O)NC(=O)[C@H](CCCN=C(N)N)NC(=O)[C@H](Cc2cnc[nH]2)NC(=O)[C@H](Cc2cnc[nH]2)NC(=O)CNC(=O)[C@H](Cc2c[nH]c3ccccc23)NC(=O)[C@H](CC(=O)O)NC(=O)[C@H](CCC(N)=O)NC(=O)[C@H](C(C)C)NC(=O)[C@H](C(C)C)NC1=O [compstatin, Ile-Cys-Val-Val-Gln-Asp-Trp-Gly-His-His-Arg-Cys-Thr]
- mPT, healthy neutrophils + BALF incubated with compstatin, group b ([1]; 3 ARDS cases (group b), FIG. 6, column 5, P=ns compared to BALF alone 24.13±1.31): 24.57±0.55
- mPT, healthy neutrophils + BALF preincubated with compstatin, group a ([1]; 4 ARDS cases (group a), FIG. 6, column 4, p<0.001 compared to BALF alone 24.13±1.31, PBS 32.11±0.58): 27.98±0.71
- effect on procoagulant activity in mPT, Comp b ([1]; group of 3 ARDS patients, FIG. 6): did not significantly reduce the procoagulant activity
- effect on procoagulant activity in mPT, Comp a ([1]; group of 4 ARDS patients, FIG. 6): reduced the procoagulant activity

Molecule: AcF-[OPdChaWR] (acetyl-Phe-[Orn-Pro-D-cyclohexylalanine-Trp-Arg]; PMX-53) (peptide)
- modified prothrombin time (mPT) of supernatants from BALF-stimulated healthy neutrophils pretreated with C5aR antagonist [2]: 31.9 s

Molecule: Acetyl-Phe-[Orn-Pro-D-cyclohexylalanine-Trp-Arg] [PMX-53]
- mPT of supernatants from BALF-stimulated healthy neutrophils after blockade of signaling ([1]; 40 μl ARDS BALF, 30 minutes pretreatment, C5aR antagonist 5 μM, Humira 0.4 μg/μl, BALF without inhibitor 24.13±1.31 sec, ARDS serum control 29.69±1.64 sec, p<0.001, FIG. 4A): 31.91 ± 0.64 s
- TF expression in BALF-stimulated neutrophils after blockade (immunohistochemical, flow cytometry, western blot) [3]: loss of TF expression

Molecule: Humira (Abbott Laboratories; anti-TNF monoclonal antibody)
- modified prothrombin time (mPT) of supernatants from healthy neutrophils stimulated with BALF pretreated with anti-TNF antibody [4]: 30.4 s
